Measured values as given in patent US20260199483A1 (Bright Angel Therapeutics Inc., priority 2022, published 2026).
In brackets after ≈: the same amount, converted by molar mass.

Legend:
[1] = Mammalian cell toxicity (Cell Titer-Glo); format: cell-based; conditions: human; HepG2 cells, 48 h incubation, Cell Titer-Glo luminescence
Procedure: HepG2 cells were seeded overnight at 500 cells/well in 384-well plate, then incubated with compounds (10-point concentration titration) for 48 h. Cell Titer-Glo® reagent ([…]) was added to each well and after 10-minute incubation at room temperature the luminescent signal was measured using an Envision plate reader (Perkin Elmer).

[2] = target: T1, purified recombinant Yck2 (Candida albicans, UniProt A0A1D8PKB4); assay: HotSpot kinase assay; format: biochemical, C. albicans
T1 construct: Yck2 residues 37-345 were PCR amplified from C. albicans genomic DNA; His6 (N); TEV protease site (N); made in house; host or cells: E. coli BL21(DE3)-Gold
T1 sequence (A0A1D8PKB4 entry or part of it): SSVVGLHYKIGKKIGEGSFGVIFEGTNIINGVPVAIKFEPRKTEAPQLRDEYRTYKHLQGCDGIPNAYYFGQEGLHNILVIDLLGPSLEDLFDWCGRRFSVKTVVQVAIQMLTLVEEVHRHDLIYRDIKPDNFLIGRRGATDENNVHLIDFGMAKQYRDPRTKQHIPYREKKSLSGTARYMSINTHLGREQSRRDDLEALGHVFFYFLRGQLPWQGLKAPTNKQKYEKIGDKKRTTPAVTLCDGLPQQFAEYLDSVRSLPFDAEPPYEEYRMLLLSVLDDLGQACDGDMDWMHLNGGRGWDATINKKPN
Procedure: IC50s were determined using the in vitro HotSpot kinase assay (purified enzymes, ^33P-ATP, an appropriate substrate and 1 μM ATP). For enzyme inhibition assays, compounds were tested in range of ten concentrations from 10 uM to 0.0005 uM using purified recombinant Yck2. Reaction conditions were 1 uM ATP, one hour incubation with inhibitor, and kinase activity detected using 33-ATP phosphorylation of an appropriately selected peptide substrate.
Yck2 residues 37-345 were PCR amplified from C. albicans genomic DNA and subcloned into the vector pMCSG53, which codes for a N-terminal His6 tag, TEV protease site, followed by the Yck2 protein. E. coli BL21(DE3)-Gold competent cells were transformed with this plasmid and the Yck2 protein was purified using methodology previously described (Stogios et al., ACS Chem. Biol. 13, 1322-1332 (2018)).

CaCi2 = assay: Antifungal sensitivity testing (broth microdilution MIC); format: cell-based; conditions: CaCi2, 96-well broth microdilution, compounds in DMSO
Procedure: Minimum inhibitory concentrations (MICs) were determined in flat bottom, 96-well plate format using a modified broth microdilution protocol as previously described (Singh et al., PLoS Pathog. 5, e1000532 (2009); LaFayette et al., PLoS Pathog. 6, 79-80 (2010)). Compounds were formulated in dimethyl sulfoxide (DMSO, Sigma-Aldrich Co.). Each compound was tested in duplicate in at least two independent experiments.

Structure (SMILES)	IC50 at 48 h [1] [µM]	IC50 [2] [nM]	MIC50 (CaCi2) [µM]
Fc1ccc(-c2nn3cc(CNC[C@H]4CO[C@](Cn5cncn5)(c5ccc(F)cc5F)C4)ccc3c2-c2ccncc2)cc1 (stereo in doubt) [Compound I-256, 1-(trans-5-((1H-1,2,4-triazol-1-yl)methyl)-5-(2,4-difluorophenyl)tetrahydrofuran-3-yl)-N-((2-(4-fluorophenyl)-3-(pyridin-4-yl)pyrazolo[1,5-a]pyridin-6-yl)methyl)methanamine]	11.8		
Nc1nccc(-c2c(-c3ccc(F)cc3)ncn2C2CCN(CCCC(O)(Cn3cncn3)c3ccc(F)cc3F)CC2)n1 (centres unmarked) [Compound I-58, 5-(4-(5-(2-aminopyrimidin-4-yl)-4-(4-fluorophenyl)-1H-imidazol-1-yl)piperidin-1-yl)-2-(2,4-difluorophenyl)-1-(1H-1,2,4-triazol-1-yl)pentan-2-ol]		3.19	> 25
Cn1cc(-c2ccncc2COC2CCN(CC(O)(Cn3cncn3)c3ccc(F)cc3F)CC2)c(-c2ccc(F)cc2)n1 (centres unmarked) [Compound I-90, 2-(2,4-difluorophenyl)-1-(4-((4-(3-(4-fluorophenyl)-1-methyl-1H-pyrazol-4-yl)pyridin-3-yl)methoxy)piperidin-1-yl)-3-(1H-1,2,4-triazol-1-yl)propan-2-ol]		47.6	0.586 (≈ 0.354 µg/mL)
O=C(NC1CCN(CC(O)(Cn2cncn2)c2ccc(F)cc2F)CC1)c1ccc2c(-c3ccncc3)c(-c3ccc(F)cc3)nn2c1 (centres unmarked) [Compound I-100, N-(1-(2-(2,4-difluorophenyl)-2-hydroxy-3-(1H-1,2,4-triazol-1-yl)propyl)piperidin-4-yl)-2-(4-fluorophenyl)-3-(pyridin-4-yl)pyrazolo[1,5-a]pyridine-6-carboxamide]		32.9	0.0651 (≈ 0.0425 µg/mL)
O=C(NC[C@](O)(Cn1cncn1)c1ccc(F)cc1F)c1ccc2c(-c3ccncc3)c(-c3ccc(F)cc3)nn2c1 [Compound I-116, (S)-N-(2-(2,4-difluorophenyl)-2-hydroxy-3-(1H-1,2,4-triazol-1-yl)propyl)-2-(4-fluorophenyl)-3-(pyridin-4-yl)pyrazolo[1,5-a]pyridine-6-carboxamide]		7.91	6.25 (≈ 3.56 µg/mL)
O=C(NC[C@@](O)(Cn1cncn1)c1ccc(F)cc1F)c1ccc2c(-c3ccncc3)c(-c3ccc(F)cc3)nn2c1 [Compound I-117, (R)-N-(2-(2,4-difluorophenyl)-2-hydroxy-3-(1H-1,2,4-triazol-1-yl)propyl)-2-(4-fluorophenyl)-3-(pyridin-4-yl)pyrazolo[1,5-a]pyridine-6-carboxamide]		5.08	0.195 (≈ 0.111 µg/mL)
OC(COc1cccc2c(-c3ccncc3)c(-c3ccc(F)cc3)nn12)(Cn1cncn1)c1ccc(F)cc1F (centres unmarked) [Compound I-139, 2-(2,4-difluorophenyl)-1-((2-(4-fluorophenyl)-3-(pyridin-4-yl)pyrazolo[1,5-a]pyridin-7-yl)oxy)-3-(1H-1,2,4-triazol-1-yl)propan-2-ol]	> 20		
O=C(NCC1CCN(CC(O)(Cn2cncn2)c2ccc(F)cc2F)CC1)c1ccc2c(-c3ccncc3)c(-c3ccc(F)cc3)nn2c1 (centres unmarked) [Compound I-147, N-((1-(2-(2,4-difluorophenyl)-2-hydroxy-3-(1H-1,2,4-triazol-1-yl)propyl)piperidin-4-yl)methyl)-2-(4-fluorophenyl)-3-(pyridin-4-yl)pyrazolo[1,5-a]pyridine-6-carboxamide]		36.8	0.0977 (≈ 0.0651 µg/mL)
O=C(NCCC(O)(Cn1cncn1)c1ccc(F)cc1F)c1ccc2c(-c3ccncc3)c(-c3ccc(F)cc3)nn2c1 (centres unmarked) [Compound I-148, N-(3-(2,4-difluorophenyl)-3-hydroxy-4-(1H-1,2,4-triazol-1-yl)butyl)-2-(4-fluorophenyl)-3-(pyridin-4-yl)pyrazolo[1,5-a]pyridine-6-carboxamide]		1.61	6.25 (≈ 3.65 µg/mL)
OC(CN1CCC(Oc2cccc3c(-c4ccncc4)c(-c4ccc(F)cc4)nn23)CC1)(Cn1cncn1)c1ccc(F)cc1F (centres unmarked) [Compound I-154, 2-(2,4-difluorophenyl)-1-(4-((2-(4-fluorophenyl)-3-(pyridin-4-yl)pyrazolo[1,5-a]pyridin-7-yl)oxy)piperidin-1-yl)-3-(1H-1,2,4-triazol-1-yl)propan-2-ol]		176	0.195 (≈ 0.122 µg/mL)
Nc1nccc(-c2c(-c3ccc(F)cc3)ncn2C2CCN(C3CCN(CC(O)(Cn4cncn4)c4ccc(F)cc4F)CC3)CC2)n1 (centres unmarked) [Compound I-224]		72.3	25 (≈ 16.5 µg/mL)
Cn1cc(-c2ccnc3c2C(=O)N(CC2CCN(CC(O)(Cn4cncn4)c4ccc(F)cc4F)CC2)C3)c(-c2ccc(F)cc2)n1 (centres unmarked) [Compound I-230, 6-((1-(2-(2,4-difluorophenyl)-2-hydroxy-3-(1H-1,2,4-triazol-1-yl)propyl)piperidin-4-yl)methyl)-4-(3-(4-fluorophenyl)-1-methyl-1H-pyrazol-4-yl)-6,7-dihydro-5H-pyrrolo[3,4-b]pyridin-5-one]		2.93	1.88 (≈ 1.21 µg/mL)
Nc1nccc(-c2c(-c3ccc(F)cc3)ncn2C2CCN(CCCn3c4c(c5cc(Cl)ccc53)CCNC4)CC2)n1 [Compound I-232, 4-(1-(1-(3-(6-chloro-1,2,3,4-tetrahydro-9H-pyrido[3,4-b]indol-9-yl)propyl)piperidin-4-yl)-4-(4-fluorophenyl)-1H-imidazol-5-yl)pyrimidin-2-amine]		2.61	> 25
Cn1cc(-c2ccncc2COCC[C@@](O)(Cn2cncn2)c2ccc(F)cc2F)c(-c2ccc(F)cc2)n1 [Compound I-236, (S)-2-(2,4-difluorophenyl)-4-((4-(3-(4-fluorophenyl)-1-methyl-1H-pyrazol-4-yl)pyridin-3-yl)methoxy)-1-(1H-1,2,4-triazol-1-yl)butan-2-ol]		169	2.34 (≈ 1.25 µg/mL)
Cn1cc(-c2ccnc3c2C(=O)N(CC2CCN(C[C@](O)(Cn4cncn4)c4ccc(F)cc4F)CC2)C3)c(-c2ccc(F)cc2)n1 [Compound I-238, (S)-6-((1-(2-(2,4-difluorophenyl)-2-hydroxy-3-(1H-1,2,4-triazol-1-yl)propyl)piperidin-4-yl)methyl)-4-(3-(4-fluorophenyl)-1-methyl-1H-pyrazol-4-yl)-6,7-dihydro-5H-pyrrolo[3,4-b]pyridin-5-one]		7.84	0.781 (≈ 0.502 µg/mL)
Cn1cc(-c2ccncc2COC(=O)NC2CCN(CC(O)(Cn3cncn3)c3ccc(F)cc3F)CC2)c(-c2ccc(F)cc2)n1 (centres unmarked) [Compound I-244, (4-(3-(4-fluorophenyl)-1-methyl-1H-pyrazol-4-yl)pyridin-3-yl)methyl (1-(2-(2,4-difluorophenyl)-2-hydroxy-3-(1H-1,2,4-triazol-1-yl)propyl)piperidin-4-yl)carbamate]	18.4		
Cn1cc(-c2ccnc3c2C(=O)N(CC2CCN(CC(=O)OC(Cn4cncn4)(Cn4cncn4)c4ccc(F)cc4F)CC2)C3)c(-c2ccc(F)cc2)n1 [Compound I-249, 2-(2,4-difluorophenyl)-1,3-di(1H-1,2,4-triazol-1-yl)propan-2-yl 2-(4-((4-(3-(4-fluorophenyl)-1-methyl-1H-pyrazol-4-yl)-5-oxo-5,7-dihydro-6H-pyrrolo[3,4-b]pyridin-6-yl)methyl)piperidin-1-yl)acetate]	> 50		
Cn1cc(-c2ccnc3c2C(=O)N(CCC2CCN(CC(O)(Cn4ccnn4)c4ccc(F)cc4F)CC2)C3)c(-c2ccc(F)cc2)n1 (centres unmarked) [Compound I-250]	> 50		
O[C@@](CNCc1ccc2c(-c3ccncc3)c(-c3ccc(F)cc3)nn2c1)(Cn1cncn1)c1ccc(F)cc1F [Compound I-253, (S)-2-(2,4-difluorophenyl)-1-(((2-(4-fluorophenyl)-3-(pyridin-4-yl)pyrazolo[1,5-a]pyridin-6-yl)methyl)amino)-3-(1H-1,2,4-triazol-1-yl)propan-2-ol]		5.95	0.137 (≈ 0.0761 µg/mL)
OC(Cn1cncn1)(c1ccc(F)cc1F)C(F)(F)c1ccc(C#Cc2ccc(CNCc3ccc4c(-c5ccncc5)c(-c5ccc(F)cc5)nn4c3)cc2)cn1 (centres unmarked) [Compound I-267, 2-(2,4-difluorophenyl)-1,1-difluoro-1-(5-((4-((((2-(4-fluorophenyl)-3-(pyridin-4-yl)pyrazolo[1,5-a]pyridin-6-yl)methyl)amino)methyl)phenyl)ethynyl)pyridin-2-yl)-3-(1H-1,2,4-triazol-1-yl)propan-2-ol]	8.03		
OC(Cn1cnnn1)(c1ccc(F)cc1F)C(F)(F)c1ccc(-c2ccc(CNCc3ccc4c(-c5ccncc5)c(-c5ccc(F)cc5)nn4c3)cc2)cn1 (centres unmarked) [Compound I-269, 2-(2,4-difluorophenyl)-1,1-difluoro-1-(5-(4-((((2-(4-fluorophenyl)-3-(pyridin-4-yl)pyrazolo[1,5-a]pyridin-6-yl)methyl)amino)methyl)phenyl)pyridin-2-yl)-3-(1H-tetrazol-1-yl)propan-2-ol]	3.67		
